Experimental data taken from patent publication US11273141B2, “Low-dose carbachol compositions and methods for treatment of night vision disturbance” (VYLUMA INC., priority 2020, dated 2022).
“Also recorded” adds a separate entry of the source.

Assays:
pupillary muscle = assay: Effect of benzalkonium chloride on the miotic effect of carbachol; type: in vivo; conditions: carbachol 0.025% to 0.075%
Source text: In still further experiments, the inventors investigated the effect of benzalkonium chloride on the miotic effect of carbachol. To that end, different concentrations of BAC were employed between 0.005% and 0.02% at carbachol concentrations between 0.025% and 0.075%, and the results are shown in FIGS. 6A-6C.

Dutch Belted Rabbits = assay: Pupillary diameter (pupillometry) after single ocular administration, rabbit eye model; type: in vivo
Description: Study design: 3 Dutch Belted Rabbits (pigmented breed)/group received a single ocular administration of test articles (one drop per eye) at 3 concentrations (tested one week apart). After a 2-week rest period, combinations were tested. Ocular Irritation was assessed using a modified Draize test. Intraocular pressure (IOP) was measured at baseline, 1 h, 4 h, 6 h and 24 h. Pupillary Diameter was measured at baseline, 15 min, 1 h, 4 h and 6 h after dosing.
Due to the variation in pupillary diameter and IOP between rabbits and between eyes within rabbits, the data for pupillary diameter and IOP were normalized and presented with error bars (SD). A change of 15% to 20% approximates a pupillary diameter change of 1 mm. In human, a reduction of pupillary diameter of about 2 mm is clinically generally desired.

[1] = known side effects; cited from earlier work
human individuals = assay: Miotic response (dose response, eye color) to carbachol formulations in human; type: in vivo
Source text: FIG. 7 is a graph depicting exemplary results for a dose response in human using a carbachol formulation according to the inventive subject matter.
FIG. 8 is a graph depicting exemplary results for miotic response in human individuals of different eye color using a 0.29% carbachol formulation according to the inventive subject matter.
FIG. 9 is a graph depicting exemplary results for miotic response in human individuals of different eye color using a 0.50% carbachol formulation according to the inventive subject matter.
FIG. 10 is a graph depicting exemplary results for miotic response in human individuals of different eye color using a 0.75% carbachol formulation according to the inventive subject matter.
To optimize the concentration of carbachol in the topical ophthalmic formulations, the inventors tested various dosages, and the table below depicts the composition for the carbachol formulations used.
Exemplary results for the miotic effect of carbachol at 0.29%, 0.50%, and 0.75% are depicted in FIG. 7.

[2] = 0.5% and 1%, one drop per eye, rabbit

## N-Alkyl-N-benzyl-N,N-dimethyl-ammonium chloride [BAC]
Pupillary muscle; BAC 0.005%
  effect of BAC on miotic effect of carbachol: minimal effect
Pupillary muscle; BAC 0.01%
  effect of BAC on miotic effect of carbachol: somewhat more pronounced
Pupillary muscle; BAC at least 0.02%
  effect of BAC on miotic effect of carbachol: significant

## COc1ccc2c3c1O[C@H]1C[C@@H](O)C=C[C@@]31CCN(C)C2 [Galantamine]
Dutch Belted Rabbits; 2% (high dose) alone, rabbit
  duration of reduction in pupillary diameter: at least 1 h
Dutch Belted Rabbits; 2% alone, rabbit
  decrease in pupillary diameter: 1-2 mm

## Cc1ccc(N(CC2=NCCN2)c2cccc(O)c2)cc1 [Phentolamine]
Dutch Belted Rabbits; [2]
  decrease in the pupil: approximately 1 mm
  duration of decrease in the pupil: at least 6 h
Dutch Belted Rabbits; all doses, FIG. 1, rabbit
  duration of reduction in pupillary diameter: at least 6 h
  reduction in pupillary diameter (in words): a reduction in pupillary diameter occurred at all doses

## CCN(C)C(=O)Oc1cccc([C@H](C)N(C)C)c1 [Rivastigmine]
Dutch Belted Rabbits; 1% alone, rabbit
  decrease in pupillary diameter: 1 mm
  effect on pupillary diameter (in words): very low effects as compared to carbachol; also recorded: performed substantially similar to Phentolamine; also recorded: desirable effect

## Brc1c(NC2=NCCN2)ccc2nccnc12 [Brimonidine]
Dutch Belted Rabbits; doses tested, concentration not given, rabbit
  effect on pupillary diameter (in words): little to no effect

## CC(=O)OC1CN2CCC1CC2 (stereo not shown) [aceclidine, 1-azabicyclo[2.2.2]octan-3-yl acetate]
[1]
  side effects: increased salivation and bradycardia

## C[N+](C)(C)CCOC(N)=O [Carbachol, carbamoylcholine]
Dutch Belted Rabbits; carbachol doses tested, rabbit
  duration of action: 2 to 4 h
Human individuals; 0.5%, single dose
  duration of miotic efficacy: 3 h
Human individuals; tested formulations
  saturation of dose response: 0.5%
